In US20240158348A1, “HERBICIDAL CYCLIC AMIDES N-SUBSTITUTED WITH A HALOALKYLSULFONYLANILIDE GROUP” (FMC Corporation, priority 2021, published 2024):

Key:
Assay type in all cases: in vivo
[1] = test system: ragweed (common ragweed, Ambrosia artemisiifolia); experiment: Test C preemergence, ragweed; conditions: 0 is no effect, 100 is complete control
Outline: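 Injury is given as a visual 0–100 rating, where 100 is complete control, made against untreated plants after 10 or 12 greenhouse days. Galium received a postemergence spray at the one- to two-leaf stage (2–10 cm tall). Corn, ragweed and goosegrass seeds in loam-sand blend received a directed preemergence soil spray; test chemicals were formulated in a surfactant-containing non-phytotoxic solvent.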

[2] = test system: blackgrass (Alopecurus myosuroides); experiment: Test C postemergence, blackgrass; conditions: visual injury, 0 to 100 scale (0 no effect, 100 complete control)
Outline: (§1)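 Plants grown in a sand and loam soil blend received the formulated test chemicals either as a preemergence soil-directed spray or postemergence at 2 to 10 cm height. After 10 or 12 greenhouse days, injury was assessed visually, with 100 meaning complete control.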

[3] = test system: corn (Zea mays); experiment: Test C postemergence, corn; conditions: visual injury, 0 to 100 scale (0 no effect, 100 complete control)
[4] = test system: foxtail, giant (giant foxtail, Setaria faberi); experiment: Test C postemergence, giant foxtail; conditions: visual injury, 0 to 100 scale (0 no effect, 100 complete control)
[5] = test system: kochia (Bassia scoparia); experiment: Test C postemergence, kochia; conditions: visual injury, 0 to 100 scale (0 no effect, 100 complete control)
Outline: as §1

[6] = test system: ryegrass, Italian (Italian ryegrass, Lolium multiflorum); experiment: Test C postemergence, Italian ryegrass; conditions: visual injury, 0 to 100 scale (0 no effect, 100 complete control)
Outline: as §1

[7] = test system: wheat (Triticum aestivum); experiment: Test C postemergence, wheat; conditions: visual injury, 0 to 100 scale (0 no effect, 100 complete control)
Outline: as §1

[8] = test system: ducksalad (Heteranthera limosa); experiment: Test D flooded paddy test, ducksalad; parameters: key: 0 = no effect, 100 = complete control; conditions: 250 g ai/ha, Flood; applied to paddy water at 2-leaf stage; visual rating after 13 days; scale 0 (no effect) to 100 (complete control)
Outline: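 Visual response scores run 0 (no effect) to 100 (complete control), judged against controls 13 days after treatment. Compounds were added to paddy water 3 cm deep over soil, around plants at the 2-leaf stage kept in a greenhouse.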

| SMILES | Plant response rating (0 to 100 scale), Ragweed ([1]; 125 g ai/ha Preemergence) | Blackgrass plant response rating ([2]; 31 g ai/ha Postemergence) | Blackgrass plant response rating ([2]; 125 g ai/ha Postemergence) | Corn plant response rating ([3]; 31 g ai/ha Postemergence) | Corn plant response rating ([3]; 125 g ai/ha Postemergence) | Foxtail, Giant plant response rating ([4]; 31 g ai/ha Postemergence) | Foxtail, Giant plant response rating ([4]; 125 g ai/ha Postemergence) | Kochia plant response rating ([5]; 31 g ai/ha Postemergence) | Kochia plant response rating ([5]; 125 g ai/ha Postemergence) | Ryegrass, Italian plant response rating ([6]; 31 g ai/ha Postemergence) | Ryegrass, Italian plant response rating ([6]; 125 g ai/ha Postemergence) | Wheat plant response rating ([7]; 31 g ai/ha Postemergence) | Wheat plant response rating ([7]; 125 g ai/ha Postemergence) | Plant response rating, Ducksalad [8] | Plant response rating (0 to 100 scale), Ragweed ([1]; 31 g ai/ha Preemergence) |
| --- | --- | --- | --- | --- | --- | --- | --- | --- | --- | --- | --- | --- | --- | --- | --- |
| Cc1cc(C)c(N(COC(=O)C(C)(C)C)S(=O)(=O)C(F)(F)F)cc1N1CCC(OCC2CC(F)(F)C2)C1=O (centres unmarked) [Compound 55] | 40 | 0 | 40 | 0 | 70 | 30 | 70 | 0 | 20 | 0 | 60 | 20 | 70 | 90 | – |
| C#CC(C)OC1CCN(c2cc(NS(=O)(=O)C(F)(F)F)c(C)cc2C)C1=O (centres unmarked) [Compound 58] | 90 | 50 | 70 | 60 | 90 | 60 | 90 | 70 | 90 | 60 | 70 | 70 | 70 | 80 | 80 |
| C=C(C)COC1CCN(c2cc(NS(=O)(=O)C(F)(F)F)c(C)cc2C)C1=O (centres unmarked) [Compound 59] | 70 | 10 | 80 | 20 | 90 | 10 | 90 | 70 | 80 | 10 | 70 | 50 | 80 | 80 | 50 |
| CC#CCOC1CCN(c2cc(NS(=O)(=O)C(F)(F)F)c(C)cc2C)C1=O (centres unmarked) [Compound 60] | 100 | 50 | 90 | 90 | 100 | 80 | 90 | 100 | 90 | 50 | 70 | 80 | 90 | 90 | 90 |
| Cc1cc(C)c(N2CCC(OCc3ccccc3)C2=O)cc1NS(=O)(=O)C(F)(F)F (centres unmarked) [Compound 61] | 90 | 30 | 70 | 10 | 60 | 20 | 50 | 60 | 90 | 0 | 60 | 70 | 80 | 75 | 0 |
| Cc1c(NS(=O)(=O)C(F)(F)F)cc(N2CCC(OCC3CC3)C2=O)c(C)c1F (centres unmarked) [Compound 63] | 100 | 0 | 30 | 0 | 50 | 0 | 30 | 80 | 90 | 0 | 10 | 10 | 40 | 95 | 90 |
